Experimental data taken from patent publication US20180271808A1, “METHODS OF REDUCING CHEMORESISTANCE AND TREATING CANCER” (Mitchell Woods Pharmaceuticals, Inc., priority 2015, published 2018).
Where two headings read alike, the source gives them in different places.

What was measured:
[1] = tested on: AKT phosphorylation (PANC-1 cells); experiment: Western blot of phospho-active (Ser473) and total AKT in PANC-1 cells; conditions: PANC-1, 1 μM 10 minutes, basally and after AM251 20 minutes
Experimental: (§4) In the first series of experiments, PANC-1 cells were incubated with media containing vehicle (0.01% DMSO) or MNF (10, 100, 500 and 1000 nM) for 24 hours. The medium was removed, and cells were collected and processed for immunoblot analysis. […] Cell lysates were processed for immunoblot analysis, focusing on the expression of selected cancer cell biomarkers. In the third series of experiments, serum-starved PANC-1 cells were pretreated with vehicle (0.01% DMSO), 1 μM MNF, or 1 μM CID for 10 minutes followed by a 20 minute incubation with and without 1 AM251. Cell lysates were processed for immunoblot analysis and the levels of phospho-active (Ser473) and total forms of AKT were determined. All experiments were repeated three times on three separate days, unless stated otherwise.

MDA-MB-231 cells = experiment: Intracellular uptake of doxorubicin (fluorescence imaging) in MDA-MB-231 cells; assay type: cell-based, human; conditions: MDA-MB-231, MNF 1 μM 24 hours, then doxorubicin 0.125 μM 2 hours, vs control cells
Experimental: (§1) PANC-1 and MDA-MB-231 cells were seeded on Lab-Tek II CC2 chamber slides and grown until they reached >70% confluence. The original media was removed and cells were incubated in fresh media supplemented with vehicle (0.01% DMSO) or 1 μM MNF for 24 hours, after which doxorubicin (0.125 μM) was added for an additional 2 hours. The cells were washed with PBS and the images were acquired with a Zeiss axiovert 200 microscope using standard FITC filter (#09 filter set) and Carl Zeiss LSM software. ImageJ software was used to quantify the changes in the nuclear accumulation of doxorubicin defined as ring-shaped regions of interest (ROI).

[2] = tested on: HIF-1α, phospho-PKM2 (Ser37), phospho-β-catenin (Tyr333) in PANC-1 nuclear extracts; experiment: Western blot of nuclear translocation of cancer biomarkers in PANC-1 nuclear extracts; assay type: cell-based, human; conditions: PANC-1, 1 μM, 10 minutes, with and without AM251 1 μM 20 minutes
Experimental: Nuclear protein extraction was carried out using a NE-PER Kit followed by the determination of the levels of HIF-1α and phospho-active forms of β-catenin (Tyr333) and PKM2 (Ser37) by immunoblotting. The same experiment was repeated three times on three separate days.
Cells were lysed in radioimmuno precipitation buffer containing EGTA and EDTA (Boston BioProducts, Ashland, Mass.) supplemented with protease inhibitor cocktail (Sigma-Aldrich). Protein concentration in clarified lysates was determined using the bicinchoninic acid reagent (Thermo Fisher Scientific). Proteins (20 μg/well) were separated on 4-12% precast gels (Invitrogen, Carlsbad, Calif.) using SDS-polyacrylamide gel electrophoresis under reducing conditions and then electrophoretically transferred onto polyvinylidenefluoride membrane (Invitrogen). […] All membrane-bound primary antibodies were detected with horseradish peroxidase-conjugated secondary antibodies (Santa Cruz Biotechnology, Dallas, Tex.) and visualized by enhanced chemiluminescence (ECL Plus, GE Healthcare, Piscataway, N.J.). Quantification of the protein bands was performed by volume densitometry using ImageJ software (National Institutes of Health, Bethesda, Md.) and normalization to β-actin or Lamin A/C. […]

[3] = tested on: MDA-MB-231 breast cancer cells; experiment: [3H]-thymidine incorporation (proliferation / cytotoxicity) in MDA-MB-231 cells; assay type: cell-based, human; conditions: for IC50: Homo sapiens
Experimental: (§2) [^3H]-Thymidine incorporation studies. Cells were seeded in 24-well plates at 2.5×10^4 cells per well and grown for 24 hours at 37° C. The effect of MNF (0-10 μM) on [^3H]-thymidine incorporation into PANC-1, MDA-MB-231, and MCF-7 cells was investigated following procedures previously described in Paul, et al., Cannabinoid receptor activation correlates with the proapoptotic action of the β2-adrenergic agonist (R,R′)-4-methoxy-1-naphthylfenoterol in HepG2 hepatocarcinoma cells, J. Pharmacol. Exp. Ther., vol. 343, pgs 157-166 (2012); and Paul, et al., (R,R′)-4′-methoxy-1-naphthylfenoteroltargets GPR55-mediated ligand internalization and impairs cancer cellmotility, Biochem. Pharmacol., vol. 87, pgs 547-561 (2014). The effect of MNF on doxorubicin cytotoxicity in PANC-1 cells was measured using [^3H]-thymidine incorporation. In these studies, the cells were incubated with either fresh medium containing vehicle (0.01% DMSO) or MNF (1 μM) for 24 hours. The spent media was removed and replaced with fresh media supplemented with doxorubicin (0-10 μM) and the cells incubated for an additional 24 hours. [^3H]-Thymidine (1 μCi per well) incorporation into DNA was then performed for 16 hours. Cells were washed with PBS, lysed in 600 μt of 0.1 N NaOH, and the radioactivity was measured by liquid scintillation counting. Three independent experiments were conducted on separate days. Similar experiments were conducted to investigate the effect of MNF on the cytotoxicity of gemcitabine (0-10 μM) in PANC-1 cells. The effects of MNF (1 μM) on the cytotoxicity of doxorubicinin MDA-MB-231 cells and of MNF (0.01 μM) on the cytotoxicity of doxorubicin in U87MG cells were investigated using the protocol described above.
(§3) Sigmoidal dose-response curves (IC50 curves) were determined using the ‘nonlinear regression (curve fit)’ model contained within the Prism 4 software package (GraphPad Software, Inc., La Jolla, Calif.) running on a personal computer. For immunoblot analyses, statistical comparisons between treated and control groups were performed using unpaired Student's t-tests. Data are expressed as relative fold change ±standard deviation. P values ≤0.05 were considered significant.

[4] = tested on: Pgp, BCRP in PANC-1 nuclear extracts; experiment: Immunoblot of Pgp and BCRP in PANC-1 nuclear extracts; assay type: cell-based, human; conditions: MNF 0.5 and 1 μM, 24 hours
Experimental: Values were normalized to PANC-1 cells treated with 0.01% DMSO as control. Data are expressed as mean±SD from 3 independent experiments. FIG. 5C presents fluorescence imaging of intracellular doxorubicin in PANC-1 cells pretreated with MNF (1 μM) for 24 hours and followed with 0.125 μM of doxorubicin treatment for 2 hours. The upper panel of FIG. 5D presents representative immunoblot depicting protein levels of Pgp, BCRP, and lamin A/C in PANC-1 nuclear extracts after cell treatment with 0.5 and 1 μM of MNF for 24 hours. In the lower panel of FIG. 5D, protein bands were quantified by densitometry and the data normalized to lamin A/C levels and plotted relative to cells treated with 0.01% DMSO as control.
Cells were lysed in radioimmuno precipitation buffer containing EGTA and EDTA (Boston BioProducts, Ashland, Mass.) supplemented with protease inhibitor cocktail (Sigma-Aldrich). Protein concentration in clarified lysates was determined using the bicinchoninic acid reagent (Thermo Fisher Scientific). […] All membrane-bound primary antibodies were detected with horseradish peroxidase-conjugated secondary antibodies (Santa Cruz Biotechnology, Dallas, Tex.) and visualized by enhanced chemiluminescence (ECL Plus, GE Healthcare, Piscataway, N.J.). […]

GPR55 (PANC-1 cells) = experiment: Western blot of cancer biomarker and MDR proteins in PANC-1 cell lysates; conditions: for AM251-induced increase in BCRP expression: PANC-1, antagonist 1 μM before AM251 1 μM
Experimental: as §4
Cells were lysed in radioimmuno precipitation buffer containing EGTA and EDTA (Boston BioProducts, Ashland, Mass.) supplemented with protease inhibitor cocktail (Sigma-Aldrich). Protein concentration in clarified lysates was determined using the bicinchoninic acid reagent (Thermo Fisher Scientific). […] Western blots were performed according to standard methods, which involved a blocking step in Tris-buffered saline/0.1% Tween-20 (TBS-T) supplemented with 5% non-fat milk and incubation with primary antibodies of interest. All membrane-bound primary antibodies were detected with horseradish peroxidase-conjugated secondary antibodies (Santa Cruz Biotechnology, Dallas, Tex.) and visualized by enhanced chemiluminescence (ECL Plus, GE Healthcare, Piscataway, N.J.). Quantification of the protein bands was performed by volume densitometry using ImageJ software (National Institutes of Health, Bethesda, Md.) and normalization to β-actin or Lamin A/C. […] The antibodies were used at the dilution recommended by the manufacturers.

PANC-1 cells [5] = experiment: [3H]-thymidine incorporation (proliferation / cytotoxicity) in PANC-1 cells; assay type: cell-based, human; conditions: for IC50: Homo sapiens; for fold decrease in calculated IC50 by MNF pretreatment: PANC-1, MNF 1 μM 24 hours pretreatment
Experimental: as §2, §3

PANC-1 cells [6] = experiment: Intracellular uptake of doxorubicin (fluorescence imaging) in PANC-1 cells; assay type: cell-based, human; conditions: PANC-1, MNF 1 μM 24 hours, then doxorubicin 0.125 μM 2 hours, vs control cells
Experimental: as §1

[7] = tested on: phospho-PKM2 (Ser37) in PANC-1 cells; experiment: Immunofluorescence confocal measurement of nuclear phospho-PKM2; assay type: cell-based, human; conditions: PANC-1, 1 μM 10 minutes, basal and after AM251 stimulation
Experimental: Measurement of nuclear phospho-PKM2. PANC-1 cells were seeded on Lab-Tek II CC2 chamber slides (Thermo Scientific Nunc, Rochester, N.Y.) and grown until they reached >70% confluence. […] The GPR55 agonist AM251 (1 μM) was added for 20 minutes where indicated. Cells were washed twice with PBS, fixed with 4% (v/v) paraformaldehyde (Sigma-Aldrich) in PBS for 20 minutes at room temperature, followed by 3×PBS washes and permeabilization with 0.1% Triton X-100 (Sigma-Aldrich) for 15 minutes. Next, the cells were incubated with 10% goat serum for 1 hour, followed by overnight incubation with rabbit polyclonal anti-phospho-PKM2 antibody (Ser37, 1:200) at 4° C. After 3×PBS washes, Alexa Fluor 488-conjugated goat anti-rabbit antibody (Invitrogen; 1:1000) was added to the slides for 2 hours at room temperature. The slides were washed with PBS and mounted in Prolong Gold antifade mounting medium containing DAPI (4′,6-diamidino-2-phenylindole) (Invitrogen) for nuclear counterstaining. The slides were cured for 24 hours at room temperature in the dark, after which images were acquired with a Zeiss LSM 710 confocal microscope using Carl Zeiss LSM software (Thorn-wood, NY). ImageJ software was used to quantify the changes in the nuclear pool of phospho-PKM2 levels.

MCF-7 cells = experiment: [3H]-thymidine incorporation (proliferation) in MCF-7 cells; assay type: cell-based, human; conditions: MCF-7 (low GPR55), MNF 24 hours
Experimental: as §2, with “Similar experiments were conducted to investigate the effect of MNF on the cytotoxicity of gemcitabine (0-10 μM) in PANC-1 cells. The effects of MNF (1 μM) on the cytotoxicity of doxorubicinin MDA-MB-231 cells and of MNF (0.01 μM) on the cytotoxicity of doxorubicin in U87MG cells were investigated using the protocol described above.” left out

U87MG glioblastoma cells = experiment: [3H]-thymidine incorporation (doxorubicin cytotoxicity) in U87MG cells; assay type: cell-based; conditions: Homo sapiens, U-87 MG
Experimental: [^3H]-Thymidine incorporation studies. Cells were seeded in 24-well plates at 2.5×10^4 cells per well and grown for 24 hours at 37° C. The effect of MNF (0-10 μM) on [^3H]-thymidine incorporation into PANC-1, MDA-MB-231, and MCF-7 cells was investigated following procedures previously described in Paul, et al., Cannabinoid receptor activation correlates with the proapoptotic action of the β2-adrenergic agonist (R,R′)-4-methoxy-1-naphthylfenoterol in HepG2 hepatocarcinoma cells, J. Pharmacol. Exp. Ther., vol. 343, pgs 157-166 (2012); and Paul, et al., (R,R′)-4′-methoxy-1-naphthylfenoteroltargets GPR55-mediated ligand internalization and impairs cancer cellmotility, Biochem. Pharmacol., vol. 87, pgs 547-561 (2014). The effect of MNF on doxorubicin cytotoxicity in PANC-1 cells was measured using [^3H]-thymidine incorporation. In these studies, the cells were incubated with either fresh medium containing vehicle (0.01% DMSO) or MNF (1 μM) for 24 hours. […] Cells were washed with PBS, lysed in 600 μt of 0.1 N NaOH, and the radioactivity was measured by liquid scintillation counting. […]
Sigmoidal dose-response curves (IC50 curves) were determined using the ‘nonlinear regression (curve fit)’ model contained within the Prism 4 software package (GraphPad Software, Inc., La Jolla, Calif.) running on a personal computer. […] Data are expressed as relative fold change ±standard deviation. […]

[8] = PANC-1, MNF 1 μM 24 hours, medium replaced, then drug 0-10 μM 24 hours, read-out: calculated IC50 of chemotherapeutic drug, after MNF pretreatment
[9] = PANC-1, vehicle (0.01% DMSO) 24 hours, then drug 0-10 μM 24 hours, read-out: calculated IC50 of chemotherapeutic drug, without MNF pretreatment

COc1ccc(C[C@@H](C)NC[C@H](O)c2cc(O)cc(O)c2)c2ccccc12 [MNF, (R,R′)-4′-methoxy-1-naphthyl-fenoterol]
activating phosphorylation of AKT [1]: significantly decreased | uptake and nuclear retention of doxorubicin (MDA-MB-231 cells): enhanced uptake and nuclear retention | constitutive and AM251-induced nuclear accumulation of HIF-1α and phosphoactive forms of PKM2 (Ser37) and β-catenin (Tyr333) [2]: significantly abrogated | IC50 ([3]; MDA-MB-231, MNF 24 hours, read-out: IC50, inhibition in cell growth): 106 ± 3 nM | dose-dependent inhibition in cell growth ([3]; MDA-MB-231, MNF 24 hours): 50% | nuclear pool of Pgp and BCRP [4]: marked reduction | expression of cancer biomarkers (EGFR, β-catenin, PKM2, cyclin D1, Pgp, BCRP, MRP1, MRP5) (GPR55 (PANC-1 cells); PANC-1, MNF 10-1000 nM, 24 hours): dose-dependently reduces | AM251-induced increase in BCRP expression (GPR55 (PANC-1 cells)): blocked | IC50 (PANC-1 cells [5]; PANC-1, MNF 0-10 μM, 24 hours, mean±SD, read-out: IC50, inhibition in cell growth): 650 ± 250 nM | maximum reduction in cell growth (PANC-1 cells [5]; PANC-1, MNF 0-10 μM, 24 hours, p<0.001): 42% | uptake and nuclear retention of doxorubicin (PANC-1 cells [6]): enhancement | nuclear pool of phosphoactive form of PKM2 [7]: markedly reduced | effect on the growth of MCF-7 cells (MCF-7 cells): no significant effect

Cc1ccc(-c2n[nH]c3c2C(c2cccc(O)c2)N(c2ccc(C(=O)O)cc2)C3=O)cc1 (centres unmarked) [CID]
activating phosphorylation of AKT [1]: significantly decreased | constitutive and AM251-induced nuclear accumulation of HIF-1α and phosphoactive forms of PKM2 (Ser37) and β-catenin (Tyr333) [2]: significantly abrogated | induction of EGFR, BCRP, PKM2 by AM251 (GPR55 (PANC-1 cells); PANC-1, 1 μM pretreatment 30 minutes, then AM251 1 μM 24 hours): blocked | basal levels of EGFR, BCRP, and PKM2 proteins (GPR55 (PANC-1 cells); PANC-1, 1 μM, 24 hours): significantly reduced | AM251-induced increase in BCRP expression (GPR55 (PANC-1 cells)): blocked | nuclear pool of phosphoactive form of PKM2 [7]: markedly reduced

COc1cccc2c1C(=O)c1c(O)c3c(c(O)c1C2=O)C[C@@](O)(C(=O)CO)C[C@@H]3O[C@H]1C[C@H](N)[C@H](O)[C@H](C)O1 [doxorubicin]
IC50 ([3]; MDA-MB-231, MNF 1 μM 24 hours, then doxorubicin 0-10 μM 24 hours, p<0.05, read-out: calculated IC50 of doxorubicin, after MNF pretreatment): 255 ± 13 nM | IC50 ([3]; MDA-MB-231, doxorubicin 0-10 μM 24 hours, read-out: calculated IC50 of doxorubicin, without MNF pretreatment): 570 ± 14 nM | IC50 (PANC-1 cells [5]; [8]): 51 ± 2 nM | IC50 (PANC-1 cells [5]; [9]): 193 ± 4 nM | fold decrease in calculated IC50 by MNF pretreatment (PANC-1 cells [5]; p<0.001): ~4 fold | IC50 (U87MG glioblastoma cells; MNF 0.01 μM 24 hours, then doxorubicin 24 hours, p<0.001, read-out: calculated IC50 of doxorubicin, after MNF pretreatment): 1.1 ± 0.5 nM | IC50 (U87MG glioblastoma cells; doxorubicin 24 hours, read-out: calculated IC50 of doxorubicin, without MNF pretreatment): 6 ± 0.8 nM

Nc1ccn([C@@H]2O[C@H](CO)[C@@H](O)C2(F)F)c(=O)n1 [gemcitabine]
IC50 (PANC-1 cells [5]; [8]): 153 ± 3 nM | IC50 (PANC-1 cells [5]; [9]): 487 ± 3 nM | fold decrease in calculated IC50 by MNF pretreatment (PANC-1 cells [5]; p<0.001): ~3 fold
